Laboratory results published in patent US20250032454A1, “KDM1A INHIBITORS FOR THE TREATMENT OF DISEASE” (Imago Biosciences, Inc., priority 2021, published 2025).
Like-named read-outs stand apart in the source and are kept apart here.

Tests used:
LSD1 = LSD1 (Homo sapiens, UniProt O60341); experiment: LSD1 fluorescence coupling enzyme assay (HRP/Amplex Red, H3(1-21)K4me2 peptide), 10-dose IC50; format: biochemical; conditions: 10 μM histone H3(1-21)K4me2 peptide substrate, 3-fold serial dilution from 100 μM
How it was run: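 Fluorescence coupled assay: LSD1 demethylation of 10 μM H3(1-21)K4me2 peptide produces FAD-dependent H2O2, detected via HRP/Amplex Red as resorufin (Ex/Em 535/590 nm). IC50 from 10 doses, 3-fold serial dilution from 100 μM, in duplicate.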

MV4;11 cells = experiment: Cell Titer-Glo cell growth inhibition in MV4;11 cell line (Day 5 / Day 10); format: cell-based
Protocol: Cell growth inhibition against MV4;11 cells was confirmed for the synthetic compounds. The Cell Titer-Glo Luminescent Cell Viability Assay (Promega, USA) was used to determine the number of viable cells in culture based on quantitation of the ATP present, which signals the presence of metabolically active cells. This assay was run in a 96-well plate format arrayed in a 10-point dose curve, ranging from 0 to 50 µM with 4-fold dilutions for each compound. Cells are seeded on Day 0 at 3750 cells per well. At Day 5, a portion of each well is assayed for viability according to the Cell Titer-Glo protocol. Briefly, cells/plates were centrifuged at 1100×g for 5 minutes. 100 μL of media was removed from each well and replaced with 100 μL of CellTiter-Glo. The plates were shaken at room temperature for 10 minutes and measured on a luminescence plate reader. Another portion of each well from the Day 5 plate is used to seed a new 96 plate containing fresh compound and media set up in the equivalent 10-point dose curve array in order to continue the cell growth inhibition assay for another 5 days. A final timepoint is collected at Day 10 using the Cell Titer-Glo protocol. Luminescence was detected on an En Vision® Multilabel Plate Reader (Perkin Elmer, Waltham, Mass.) and IC50 determination was made using Graph Pad Prism software.

[1] = Homo sapiens, MV4-11, 120 h, Day 5, read-out: Cell Titer-Glo IC50 (5 d)
[2] = Homo sapiens, MV4-11, 240 h, Day 10, read-out: Cell Titer-Glo IC50 (10 d)
[3] = Day 5, read-out: Cell Titer-Glo IC50 (5 d)

| Compound | IC50 (LSD1) | IC50 (MV4;11 cells; [1]) | IC50 (MV4;11 cells; [2]) | IC50 (MV4;11 cells; [3]) | IC50 (MV4;11 cells; Homo sapiens, 120 h, Day 5, read-out: Cell Titer-Glo IC50 (5 d)) | IC50 (MV4;11 cells; Homo sapiens, 240 h, Day 10, read-out: Cell Titer-Glo IC50 (10 d)) |
| --- | --- | --- | --- | --- | --- | --- |
| Cn1nnc2ccc(-n3nc(NC[C@H]4CCC[C@H](N)C4)cc3-c3ccc(C#N)c(F)c3)cc21 [Example 74, 4-(3-((((15,3S)-3-aminocyclohexyl)methyl)amino)-1-(1-methyl-1H-benzo[d][1,2,3]triazol-6-yl)-1H-pyrazol-5-yl)-2-fluorobenzonitrile] | 1000 to 10000 nM | 1000 to 10000 nM | < 500 nM |  |  |  |
| CN[C@@H]1CCC[C@@H](CNc2cc(-c3ccc(C#N)c(F)c3)n(-c3ccc(OC)cc3)n2)C1 (single isomer, unassigned) [Example 33b] | < 500 nM | 1000 to 10000 nM |  |  |  |  |
| CS(=O)(=O)n1cc(-c2ccc(-n3nc(NC[C@H]4CCC[C@H](N)C4)cc3-c3ccc(C#N)c(F)c3)cc2)cn1 [Example 59, 4-(3-((((1S,3S)-3-aminocyclohexyl)methyl)amino)-1-(4-(1-(methylsulfonyl)-1H-pyrazol-4-yl)phenyl)-1H-pyrazol-5-yl)-2-fluorobenzonitrile] | < 500 nM | 1000 to 10000 nM | < 500 nM |  |  |  |
| N#Cc1ccc(-c2cc(NC[C@H]3CCC[C@H](N)C3)nn2-c2ccncc2)cc1F [Example 17, 4-(3-((((1S,3S)-3-aminocyclohexyl)methyl)amino)-1-(pyridin-4-yl)-1H-pyrazol-5-yl)-2-fluorobenzonitrile] | > 10000 nM | 1000 to 10000 nM | 1000 to 10000 nM |  |  |  |
| (S)-4-(3-(3-aminopiperidin-1-yl)-1-(p-tolyl)-1H-pyrazol-5-yl)-2-fluorobenzonitrile/(S)-4-(5-(3-aminopiperidin-1-yl)-1-(p-tolyl)-1H-pyrazol-3-yl)-2-fluorobenzonitrile [Example 39] | < 500 nM |  |  | 1000 to 10000 nM |  |  |
| Cn1cc2cc(-n3nc(NC[C@@H]4CCC[C@@H](N)C4)c(Cl)c3-c3ccc(C#N)c(F)c3)ccc2n1 [Example 36, 4-(3-((((1R,3R)-3-aminocyclohexyl)methyl)amino)-4-chloro-1-(2-methyl-2H-indazol-5-yl)-1H-pyrazol-5-yl)-2-fluorobenzonitrile] | 1000 to 10000 nM | 500 to 1000 nM | < 500 nM |  |  |  |
| CN[C@H]1CCCC(CNc2cc(-c3ccc(C#N)c(F)c3)n(-c3ccc(OC)cc3)n2)C1 (single isomer, unassigned) [Example 32a] | < 500 nM | 1000 to 10000 nM |  |  |  |  |
| Cn1nc2ccc(-n3nc(NC[C@H]4CCC[C@H](N)C4)cc3-c3ccc(C#N)c(F)c3)cc2c1Cl [Example 14SS, 4-(3-((((1S,3S)-3-aminocyclohexyl)methyl)amino)-1-(3-chloro-2-methyl-2H-indazol-5-yl)-1H-pyrazol-5-yl)-2-fluorobenzonitrile] | < 500 nM |  | < 500 nM |  |  |  |
| CN[C@H]1CCC[C@H](CNc2cc(-c3ccc(C#N)c(F)c3)n(-c3ccc(OC)cc3)n2)C1 (single isomer, unassigned) [Example 33a] | 500 to 1000 nM | 1000 to 10000 nM |  |  |  |  |
| COc1ccc(-n2nc(NCC3CCCNCC3)cc2-c2ccc(C#N)c(F)c2)cc1 (stereo not drawn) [Example 22, 4-(3-((azepan-4-ylmethyl)amino)-1-(4-methoxyphenyl)-1H-pyrazol-5-yl)-2-fluorobenzonitrile] | < 500 nM | 1000 to 10000 nM | < 500 nM |  |  |  |
| Cn1ncc2cc(-n3nc(NC[C@H]4CN5CCC4CC5)cc3-c3ccc(C#N)c(F)c3)ccc21 (single isomer, unassigned) [Example 31b] | < 500 nM |  |  |  | 500 to 1000 nM | < 500 nM |
| 4-(3-(4-aminopiperidin-1-yl)-1-(p-tolyl)-1H-pyrazol-5-yl)-2-fluorobenzonitrile/4-(5-(4-aminopiperidin-1-yl)-1-(p-tolyl)-1H-pyrazol-3-yl)-2-fluorobenzonitrile [Example 34] | < 500 nM |  |  | 1000 to 10000 nM |  |  |
| N#Cc1ccc(-c2cc(NC[C@H]3CCC[C@H](N)C3)nn2-c2ccc(C(=O)N3CCCC3)cc2)cc1F [Example 63, 4-(3-((((1S,3S)-3-aminocyclohexyl)methyl)amino)-1-(4-(pyrrolidine-1-carbonyl)phenyl)-1H-pyrazol-5-yl)-2-fluorobenzonitrile] | < 500 nM | < 500 nM | < 500 nM |  |  |  |
| Cc1ccc(-n2nc(NC[C@H]3CCC[C@H](N)C3)cc2-c2ccc(C#N)c(F)c2)cc1 [Example 12SS, 4-(3-((((1S,3S)-3-aminocyclohexyl)methyl)amino)-1-(p-tolyl)-1H-pyrazol-5-yl)-2-fluorobenzonitrile] | < 500 nM | < 500 nM | < 500 nM |  |  |  |

Now from value to compound, other results behind:

| IC50 (LSD1) | IC50 (MV4;11 cells; [1]) | IC50 (MV4;11 cells; [2]) | IC50 (MV4;11 cells; [3]) | Compound | IC50 (MV4;11 cells; Homo sapiens, 120 h, Day 5, read-out: Cell Titer-Glo IC50 (5 d)) | IC50 (MV4;11 cells; Homo sapiens, 240 h, Day 10, read-out: Cell Titer-Glo IC50 (10 d)) |
| --- | --- | --- | --- | --- | --- | --- |
| < 500 nM | < 500 nM | < 500 nM |  | N#Cc1ccc(-c2cc(NC[C@H]3CCC[C@H](N)C3)nn2-c2ccc(-n3ccnn3)cc2)cc1F [Example 61, 4-(1-(4-(1H-1,2,3-triazol-1-yl)phenyl)-3-((((1S,3S)-3-aminocyclohexyl)methyl)amino)-1H-pyrazol-5-yl)-2-fluorobenzonitrile] |  |  |
| < 500 nM | 1000 to 10000 nM |  |  | COc1ccc(-n2nc(NCC3CC[C@@H](N)C3)cc2-c2ccc(C#N)c(F)c2)cc1 (mixture of isomers) [Example 4, rac-4-(3-((((1S,3R)-3-aminocyclopentyl)methyl)amino)-1-(4-methoxyphenyl)-1H-pyrazol-5-yl)-2-fluorobenzonitrile] |  |  |
| < 500 nM | < 500 nM |  |  | COc1ccc(-n2nc(NC[C@H]3CCC[C@@H](N)C3)cc2-c2ccc(C#N)c(F)c2)cc1 (racemic) [Example 5, rac-4-(3-((((15,3R)-3-aminocyclohexyl)methyl)amino)-1-(4-methoxyphenyl)-1H-pyrazol-5-yl)-2-fluorobenzonitrile] |  |  |
| < 500 nM | 500 to 1000 nM | < 500 nM |  | N#Cc1ccc(-c2cc(NC[C@@H]3CCC[C@@H](N)C3)nn2-c2ccc3c(cnn3-c3ccncc3)c2)cc1F [Example 76, 4-(3-((((1R,3R)-3-aminocyclohexyl)methyl)amino)-1-(1-(pyridin-4-yl)-1H-indazol-5-yl)-1H-pyrazol-5-yl)-2-fluorobenzonitrile] |  |  |
| < 500 nM | < 500 nM | < 500 nM |  | N#Cc1ccc(-c2cc(NC[C@H]3CCCNCC3)nn2-c2ccc(N3CCS(=O)(=O)CC3)cc2)cc1F (single isomer, unassigned) [Example 26b] |  |  |
| < 500 nM | < 500 nM | < 500 nM |  | N#Cc1ccc(-c2cc(NC[C@H]3CCCNCC3)nn2-c2ccc(N3CCN(CCO)CC3)cc2)cc1F (single isomer, unassigned) [Example 27b] |  |  |
| < 500 nM | < 500 nM | < 500 nM |  | N#Cc1ccc(-c2cc(NC[C@H]3CCC[C@H](N)C3)nn2-c2ccc(-c3cnn(CCO)c3)cc2)cc1F [Example 56, 4-(3-((((1S,3S)-3-aminocyclohexyl)methyl)amino)-1-(4-(1-(2-hydroxyethyl)-1H-pyrazol-4-yl)phenyl)-1H-pyrazol-5-yl)-2-fluorobenzonitrile] |  |  |
| < 500 nM | < 500 nM | < 500 nM |  | N#Cc1ccc(-c2cc(NC[C@H]3CCC[C@H](N)C3)nn2-c2ccc(N3CCCC3)cc2)cc1F [Example 19, 4-(3-((((1S,3S)-3-aminocyclohexyl)methyl)amino)-1-(4-(pyrrolidin-1-yl)phenyl)-1H-pyrazol-5-yl)-2-fluorobenzonitrile] |  |  |
| < 500 nM | < 500 nM | < 500 nM |  | COc1ccc(-n2nc(NC[C@H]3C[C@@H](N)C3)cc2-c2ccc(C#N)c(F)c2)cc1 [Example 41, 4-(3-((((1s,3s)-3-aminocyclobutyl)methyl)amino)-1-(4-methoxyphenyl)-1H-pyrazol-5-yl)-2-fluorobenzonitrile] |  |  |
| < 500 nM |  | < 500 nM |  | Cn1nc2ccc(-n3nc(NC[C@H]4CCC[C@H](N)C4)cc3-c3ccc(C#N)c(F)c3)cc2n1 [Example 69, 4-(3-((((15,3S)-3-aminocyclohexyl)methyl)amino)-1-(2-methyl-2H-benzo[d][1,2,3]triazol-5-yl)-1H-pyrazol-5-yl)-2-fluorobenzonitrile] |  |  |
| < 500 nM | < 500 nM | < 500 nM |  | Cn1cc2cc(-n3nc(NC[C@H]4CCC[C@H](N)C4)c(Cl)c3-c3ccc(C#N)c(F)c3)ccc2n1 [Example 37, 4-(3-((((1S,3S)-3-aminocyclohexyl)methyl)amino)-4-chloro-1-(2-methyl-2H-indazol-5-yl)-1H-pyrazol-5-yl)-2-fluorobenzonitrile] |  |  |
| 1000 to 10000 nM | 1000 to 10000 nM | < 500 nM |  | CS(=O)(=O)N1CCN(c2cccc(-n3nc(NC[C@H]4CCC[C@H](N)C4)cc3-c3ccc(C#N)c(F)c3)c2)CC1 [Example 49, 4-(3-((((1S,3S)-3-aminocyclohexyl)methyl)amino)-1-(3-(4-(methylsulfonyl)piperazin-1-yl)phenyl)-1H-pyrazol-5-yl)-2-fluorobenzonitrile] |  |  |
